# Assays:
# Test in all cases: General herbicidal evaluation, postemergence
# Type in all cases: in vivo
# Conditions in all cases: 16 days after treatment
# [1] = system: barnyardgrass (Echinochloa crusgalli, ECHCG)
# Source text: (§1) Applications of methylidene mevalonate were made either to the foliage (postemergence) or soil (preemergence). Seeds of sunflower (Helianthus annus, HELAN), morningglory (Ipomoea hederacea, IPOHE) velvetleaf (Abutilon theophrasti, ABUTH), pigweed (Amaranthus spp., AMARE), barnyardgrass (Echinochloa crusgalli, ECHCG), giant foxtail (Setaria faberi, SETFA), wild oats (Avena fatua, AVEFA), and blackgrass (Alopecurus myosuroides, ALOMY) were planted in mineral soil (sandy clay loam, 51% sand, 26% silt, 23% clay, 2.8% O.M., pH 7.8) and Metro-mix (Bulk Sak, Inc., Malvern, Ark., USA) for preemergence and postemergence treatments, respectively. Pots receiving preemergence treatments were watered immediately following application. Prior to postemergence treatment, plants were grown in the greenhouse (16 h photoperiod, 27 C) and thinned to a density of 2 to 15 plants pot^−1, depending on species. At the time of postemergence applications, plants were 8-12 days old, 3 to 10 cm in height, and in the 1- to 3-true-leaf stage. Natural light in the greenhouse was supplemented with metal halide lights that provided an average photosynthetic photon flux of 500 μmol m^−2s^−1.
# (§2) A sample of sodium methylidene mevalonate was dissolved in 4 mL of distilled water followed by 10 mL of formulation stock “B” (200 mL isopropanol, 20 mL crop oil concentrate, 0.4 g Triton X-155 [Sigma Chemical Co., St. Louis, Mo. 62718], and 78 mL water). This was followed by three 1:1 (v/v) serial dilutions using formulation stock “C” (100 mL isopropanol, 10 mL crop oil concentrate, 0.2 g Triton X-155, 390 mL water, 485 mL acetone and 15 mL DMSO).
# (§3) Treatments were made at four different doses (4000, 2000, 1000, and 500 g ha^−1). For preemergence treatments, 1.75 mL of spray solution were applied to the soil surface in each pot using a glass Cornwall syringe fitted with a Teejet SS8001E flat-fan nozzle (Spraying Systems Co., Wheaton, Ill. 60189-7900). For postemergence applications, the foliage of the test plants was sprayed using a DeVilbiss atomizer (DeVilbiss Health Car, Inc., Somerset, Pa. 15501) driven by compressed air at a pressure of 22 kPa. Untreated controls were included.
# (§4) Pots were placed in the greenhouse following compound application. Pots from postemergence and preemergence were sub-irrigated and top-watered, respectively, as needed for the duration of the test. […]
# [2] = system: blackgrass (Alopecurus myosuroides, ALOMY)
# Source text: as §1, §2, §3, §4
# [3] = system: giant foxtail (Setaria faberi, SETFA)
# Source text: as §1, §2, §3, §4
# [4] = system: morningglory (Ipomoea hederacea, IPOHE)
# Source text: as §1, §2, §3, §4
# [5] = system: pigweed (Amaranthus spp., AMARE)
# Source text: as §1, §2, §3, §4
# [6] = system: sunflower (Helianthus annus, HELAN)
# Source text: as §1, §2, §3, §4
# [7] = system: velvetleaf (Abutilon theophrasti, ABUTH)
# Source text: as §1, §2, §3, §4
# [8] = system: wild oats (Avena fatua, AVEFA)
# Source text: as §1, §2, §3, §4
smiles,measurement,setting,value
"C=C(CO)C(C)(O)CC(=O)O (centres unmarked) [methylidene mevalonate, 3-hydroxy-4-(hydroxymethyl)-3-methylpent-4-enoic acid]",Visual Injury (%),"[1]; 0.5 kg ha^−1, ECHCG",60%
same,Visual Injury (%),"[1]; 1.0 kg ha^−1, ECHCG",70%
same,Visual Injury (%),"[1]; 2.0 kg ha^−1, ECHCG",70%
same,Visual Injury (%),"[1]; 4.0 kg ha^−1, ECHCG",90%
same,Visual Injury (%),"[2]; 0.5 kg ha^−1, ALOMY",30%
same,Visual Injury (%),"[2]; 1.0 kg ha^−1, ALOMY",30%
same,Visual Injury (%),"[2]; 2.0 kg ha^−1, ALOMY",60%
same,Visual Injury (%),"[2]; 4.0 kg ha^−1, ALOMY",60%
same,Visual Injury (%),"[3]; 0.5 kg ha^−1, SETFA",40%
same,Visual Injury (%),"[3]; 1.0 kg ha^−1, SETFA",50%
same,Visual Injury (%),"[3]; 2.0 kg ha^−1, SETFA",50%
same,Visual Injury (%),"[3]; 4.0 kg ha^−1, SETFA",70%
same,Visual Injury (%),"[4]; 0.5 kg ha^−1, IPOHE",60%
same,Visual Injury (%),"[4]; 1.0 kg ha^−1, IPOHE",60%
same,Visual Injury (%),"[4]; 2.0 kg ha^−1, IPOHE",65%
same,Visual Injury (%),"[4]; 4.0 kg ha^−1, IPOHE",75%
same,Visual Injury (%),"[5]; 0.5 kg ha^−1, AMARE",30%
same,Visual Injury (%),"[5]; 1.0 kg ha^−1, AMARE",50%
same,Visual Injury (%),"[5]; 2.0 kg ha^−1, AMARE",40%
same,Visual Injury (%),"[5]; 4.0 kg ha^−1, AMARE",50%
same,Visual Injury (%),"[6]; 0.5 kg ha^−1, HELAN",30%
same,Visual Injury (%),"[6]; 1.0 kg ha^−1, HELAN",40%
same,Visual Injury (%),"[6]; 2.0 kg ha^−1, HELAN",60%
same,Visual Injury (%),"[6]; 4.0 kg ha^−1, HELAN",70%
same,Visual Injury (%),"[7]; 0.5 kg ha^−1, ABUTH",40%
same,Visual Injury (%),"[7]; 1.0 kg ha^−1, ABUTH",60%
same,Visual Injury (%),"[7]; 2.0 kg ha^−1, ABUTH",60%
same,Visual Injury (%),"[7]; 4.0 kg ha^−1, ABUTH",65%
same,Visual Injury (%),"[8]; 0.5 kg ha^−1, AVEFA",40%
same,Visual Injury (%),"[8]; 1.0 kg ha^−1, AVEFA",60%
same,Visual Injury (%),"[8]; 2.0 kg ha^−1, AVEFA",60%
same,Visual Injury (%),"[8]; 4.0 kg ha^−1, AVEFA",85%
